Patent EP4722208A1, “NOVEL BENZAMIDE DERIVATIVE COMPOUND AND PHARMACEUTICAL COMPOSITION COMPRISING SAME” (Samjin Pharmaceutical Co., Ltd., priority 2023, dated 2024)
Counter-ions that a name gives are not always drawn.

Molecular target: T1, Recombinant NAMPT protein (Homo sapiens, UniProt P43490)
T1 construct: purchased BPS bioscience # 7176-1
Assay: NAMPT enzyme inhibition assay (BPS bioscience NAMPT Inhibitor Screening Assay Kit, fluorescence)
Type: biochemical
Conditions: 30 min pre-incubation, 2 h at 30°C, compound 1000 nM to 3 nM, n=2
Protocol: The NAMPT enzyme activity inhibition ability of the compound of the present invention was evaluated using the NAMPT Inhibitor Screening Assay Kit (# 7176-1) from BPS bioscience. Recombinant NAMPT protein was added to each well of a black 96-well plate, and dilution buffer was added to a blank well instead of NAMPT protein. A 5 x concentrated compound solution was added and pre-incubated at room temperature (approximately 22°C) for 30 minutes before the start of the reaction so that the compound and protein might bind before the enzyme reaction. At this time, the concentration of NAMPT protein was adjusted and used according to the enzyme activity of each protein lot within the final concentration range of 4-10 ng/µl, and the test compound was serially diluted at a ratio of 1:3 from 1000 nM to 3 nM, and experiments were conducted with n=2 for about seven concentrations. A 2 x concentrated test buffer containing ATP (final concentration of 20 µM), nicotinamide (final concentration of 20 µM), phosphoribosyl pyrophosphate (PRPP, final concentration of 40 µM), and ethanol (final concentration of 1.5%) was added, and the plate was incubated at 30°C for two hours, after which the fluorescence of a resulting reaction product was measured with excitation of 340 nm and emission of 460 nm. The NAMPT enzyme activity (%) was calculated by subtracting the measurement value of the blank well without NAMPT protein from the measurement value of all wells, and then taking the measurement value of the control well without the compound as 100%.

T1 sequence (P43490 whole entry): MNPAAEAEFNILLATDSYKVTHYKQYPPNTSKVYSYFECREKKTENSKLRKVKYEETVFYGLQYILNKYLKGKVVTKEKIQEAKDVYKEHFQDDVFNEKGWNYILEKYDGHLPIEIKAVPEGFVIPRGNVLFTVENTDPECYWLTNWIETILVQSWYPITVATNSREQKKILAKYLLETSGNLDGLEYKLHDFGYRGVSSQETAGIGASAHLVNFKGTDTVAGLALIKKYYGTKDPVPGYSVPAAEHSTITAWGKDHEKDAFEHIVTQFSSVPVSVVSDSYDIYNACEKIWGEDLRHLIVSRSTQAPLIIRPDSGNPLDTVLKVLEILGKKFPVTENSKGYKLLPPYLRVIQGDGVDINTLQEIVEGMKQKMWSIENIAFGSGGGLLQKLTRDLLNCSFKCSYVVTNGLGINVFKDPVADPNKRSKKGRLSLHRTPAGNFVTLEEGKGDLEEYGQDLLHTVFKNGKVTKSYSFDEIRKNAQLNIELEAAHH

IC50 [nM]	Compound
≥ 1000	Cn1ccc(CS(=O)(=O)c2ccc(C(=O)NCc3ccn4ccnc4c3)cc2C#Cc2ccc(C(=O)NCCN3CCNCC3)cc2)n1 [compound 193, N-(imidazo[1,2-a]pyridin-7-ylmethyl)-4-(((1-methyl-1H-pyrazol-3-yl)methyl)sulfonyl)-3-((4-((2-(piperazin-1-yl)ethyl)carbamoyl)phenyl)ethynyl)benzamide]
< 500	Cn1ccc(CS(=O)(=O)c2ccc(C(=O)NCc3ccn4ccnc4c3)cc2C#Cc2ccc3c(c2)CCNC3)n1 [compound 231, N-(imidazo[1,2-a]pyridin-7-ylmethyl)-4-(((1-methyl-1H-pyrazol-3-yl)methyl)sulfonyl)-3-((1,2,3,4-tetrahydroisoquinolin-6-yl)ethynyl)benzamide]
< 500	Nc1ccc(-n2ccc(CS(=O)(=O)c3ccc(C(=O)NCc4ccn5ccnc5c4)cc3C#Cc3ccc(F)cc3)n2)cc1 [compound 233, 4-(((1-(4-aminophenyl)-1H-pyrazol-3-yl)methyl)sulfonyl)-3-((4-fluorophenyl)ethynyl)-N-(imidazo[1,2-a]pyridin-7-ylmethyl)benzamide]
< 500	COc1cc(C#Cc2cc(C(=O)NCCCc3cn[nH]c3)ccc2S(=O)(=O)Cc2ccn(C)n2)ccc1C [compound 235, N-(3-(1H-pyrazol-4-yl)propyl)-3-((3-methoxy-4-methylphenyl)ethynyl)-4-(((1-methyl-1H-pyrazol-3-yl)methyl)sulfonyl)benzamide]
≥ 1000	Cn1ccc(CS(=O)(=O)c2ccc(C(=O)NCCCc3cn[nH]c3)cc2C#Cc2ccc(OC(F)(F)F)cc2)n1 [compound 236, N-(3-(1H-pyrazol-4-yl)propyl)-4-(((1-methyl-1H-pyrazol-3-yl)methyl)sulfonyl)-3-((4-(trifluoromethoxy)phenyl)ethynyl)benzamide]
< 500	Cn1ccc(CS(=O)(=O)c2ccc(C(=O)NCCCc3cn[nH]c3)cc2C#Cc2ccncc2)n1 [compound 237, N-(3-(1H-pyrazol-4-yl)propyl)-4-(((1-methyl-1H-pyrazol-3-yl)methyl)sulfonyl)-3-(pyridin-4-ylethynyl)benzamide]
< 500	Cn1ccc(CS(=O)(=O)c2ccc(C(=O)NCc3ccc4nccn4c3)cc2C#Cc2ccc(N)cc2)n1 [compound 240, 3-((4-aminophenyl)ethynyl)-N-(imidazo[1,2-a]pyridin-6-ylmethyl)-4-(((1-methyl-1H-pyrazol-3-yl)methyl)sulfonyl)benzamide]
500 to 1000	Cn1ccc(CS(=O)(=O)c2ccc(C(=O)NCc3ccn4ccnc4c3)cc2C#Cc2ccc(C(=O)NCCN3CCCCC3)cc2)n1 [compound 242, N-(imidazo[1,2-a]pyridin-7-ylmethyl)-4-(((1-methyl-1H-pyrazol-3-yl)methyl)sulfonyl)-3-((4-((2-(piperidin-1-yl)ethyl)carbamoyl)phenyl)ethynyl)benzamide]
< 500	Cn1ccc(CS(=O)(=O)c2ccc(C(=O)NCc3ccn4ccnc4c3)cc2C#Cc2ccc(N)nc2)n1 [compound 243, 3-((6-aminopyridin-3-yl)ethynyl)-N-(imidazo[1,2-a]pyridin-7-ylmethyl)-4-(((1-methyl-1H-pyrazol-3-yl)methyl)sulfonyl)benzamide]
≥ 1000	CN(C)c1ccc(C#Cc2cc(C(=O)NCCCc3cn[nH]c3)ccc2S(=O)(=O)Cc2ccn(C)n2)cc1 [compound 244, N-(3-(1H-pyrazol-4-yl)propyl)-3-((4-(dimethylamino)phenyl)ethynyl)-4-(((1-methyl-1H-pyrazol-3-yl)methyl)sulfonyl)benzamide]
< 500	Cn1ccc(CS(=O)(=O)c2ccc(C(=O)NCCCc3cn[nH]c3)cc2C#Cc2ccc(C3CCNCC3)cc2)n1 [compound 245, N-(3-(1H-pyrazol-4-yl)propyl)-4-(((1-methyl-1H-pyrazol-3-yl)methyl)sulfonyl)-3-((4-(piperidin-4-yl)phenyl)ethynyl)benzamide hydrochloride]

The remaining lines, values behind:

Compound	IC50 [nM]
Cn1ccc(CS(=O)(=O)c2ccc(C(=O)NCCc3c[nH]c4ccncc34)cc2C#Cc2ccc(F)cc2)n1 [compound 3, N-(2-(1H-pyrrolo[3,2-c]pyridin-3-yl)ethyl)-3-((4-fluorophenyl)ethynyl)-4-(((1-methyl-1H-pyrazol-3-yl)methyl)sulfonyl)benzamide]	< 500
O=C(NCCCc1cn[nH]c1)c1ccc(S(=O)(=O)Cc2ccn(-c3ccc(C(F)(F)F)cc3)n2)c(C#Cc2ccc(F)cc2)c1 [compound 4, N-(3-(1H-pyrazol-4-yl)propyl)-3-((4-fluorophenyl)ethynyl)-4-(((1-(4-(trifluoromethyl)phenyl)-1H-pyrazol-3-yl)methyl)sulfonyl)benzamide]	500 to 1000
Cc1cccc(CS(=O)(=O)c2ccc(C(=O)NCCCc3cn[nH]c3)cc2C#Cc2ccc(F)cc2)c1C [compound 5, N-(3-(1H-pyrazol-4-yl)propyl)-4-((2,3-dimethylbenzyl)sulfonyl)-3-((4-fluorophenyl)ethynyl)benzamide]	≥ 1000
CNS(=O)(=O)c1ccc(C(=O)NCCCc2cn[nH]c2)cc1C#Cc1ccc(F)cc1 [compound 6, N-(3-(1H-pyrazol-4-yl)propyl)-3-((4-fluorophenyl)ethynyl)-4-(N-methylsulfamoyl)benzamide]	≥ 1000
Cn1ccc(CS(=O)(=O)c2ccc(C(=O)NCCc3ccc([N+](=O)[O-])nc3)cc2C#Cc2ccc(F)cc2)n1 [compound 7, 3-((4-fluorophenyl)ethynyl)-4-(((1-methyl-1H-pyrazol-3-yl)methyl)sulfonyl)-N-(2-(6-nitropyridin-3-yl)ethyl)benzamide]	≥ 1000
Cn1ccc(CS(=O)(=O)c2ccc(C(=O)NCCc3ccc(N)nc3)cc2C#Cc2ccc(F)cc2)n1 [compound 8, N-(2-(6-aminopyridin-3-yl)ethyl)-3-((4-fluorophenyl)ethynyl)-4-(((1-methyl-1H-pyrazol-3-yl)methyl)sulfonyl)benzamide]	≥ 1000
O=C(NCCCc1cn[nH]c1)c1ccc(S(=O)(=O)Cc2cccc(C(F)(F)F)c2)c(C#Cc2ccc(F)cc2)c1 [compound 9, N-(3-(1H-pyrazol-4-yl)propyl)-3-((4-fluorophenyl)ethynyl)-4-((3-(trifluoromethyl)benzyl)sulfonyl)benzamide]	500 to 1000
Cn1ccc(CNS(=O)(=O)c2ccc(C(=O)NCc3ccn4ccnc4c3)cc2C#Cc2ccc(F)cc2)n1 [compound 115, 3-((4-fluorophenyl)ethynyl)-N-(imidazo[1,2-a]pyridin-7-ylmethyl)-4-(N-((1-methyl-1H-pyrazol-3-yl)methyl)sulfamoyl)benzamide]	< 500
O=C(NCc1ccn2ccnc2c1)c1ccc(S(=O)(=O)Cc2ccn(C3CCNCC3)n2)c(C#Cc2ccc(F)cc2)c1 [compound 122, 3-((4-fluorophenyl)ethynyl)-N-(imidazo[1,2-a]pyridin-7-ylmethyl)-4-(((1-(piperidin-4-yl)-1H-pyrazol-3-yl)methyl)sulfonyl)benzamide]	≥ 1000
Nc1cccc(CS(=O)(=O)c2ccc(C(=O)NCc3ccn4ccnc4c3)cc2C#Cc2ccc(F)cc2)c1 [compound 147]	< 500
